Earlier results in patent US6063370A, “Macromolecular complexes for drug delivery” (The Board of Trustees of the University of Illinois, priority 1998, dated 2000).

Conditions: heparin having an Mw of about 6,000

- Bioavailability: 85%
Substance: heparin
